Reference: the NIST ThermoML archive (doi:10.1016/j.jct.2015.07.047)

Conditions: Liquid, Closed cell (Static) method

Cl[Si](Cl)(Cl)Cl [silicon tetrachloride]
Conditions	vapor or sublimation pressure [kPa]
318.27 K	66.7
328.25 K	94
338.31 K	129.8
348.08 K	172.9
358.17 K	228.4
368.17 K	295.3

Cl[SiH2]Cl [dichlorosilane]
Conditions	vapor or sublimation pressure [kPa]
313.36 K	290.6
323.35 K	384.1
333.19 K	496.6
343.04 K	631.7
352.98 K	793.4
362.94 K	982.4

Cl[SiH](Cl)Cl [trichlorosilane]
Conditions	vapor or sublimation pressure [kPa]
313.34 K	134.1
323.33 K	183.5
333.17 K	245
343 K	321
352.96 K	414.5
362.96 K	528.8
